Results taken from patent US20100330003A1, “ORAL CARE PRODUCT AND METHODS OF USE AND MANUFACTURE THEREOF” (Colgate-Palmolive Company, priority 2008, published 2010).

Tested on: S. sanguis
Assay: ammonia production by S. sanguis at pH 4.0 (Ammonia Assay kit)
Type: cell-based
Settings: 5 millimolar amino acid, 0.1% sucrose, pH 4.0, 37° C., 30 minutes
Experimental: An overnight culture of S. sanguis is grown at 37° C. in trypticase soy broth (Becton Dickinson, Sparks, Md.). The culture is centrifuged at 5,000 rpm for 5 minutes at 1 milliliter at a time into preweighed tubes in order to accumulate approximately 5 milligrams of wet pellet weight. The pellet is then resuspended into 20 millimolar potassium phosphate buffer (JT Baker. Phillipsburg, N.J.), pH 4.0, to simulate a stressed environment for the bacterial cell where ammonia would be produced for survival. The final concentration is 5 milligram per milliliter. To this final concentration, a 5 millimolar final concentration of L-arginine, L-citrulline, or L-ornithine is added along with a 0.1% final concentration of sucrose (VWR, West Chester, Pa.). This mixture is then incubated at 37° C. in a shaking water bath for 30 minutes before ammonia production is determined.
In order to analyze for ammonia, an Ammonia Assay kit is used from Diagnostic Chemicals Limited (Oxford, Conn.). The intended use of this specific kit is for the in vitro quantification of ammonia in plasma, but the procedure is modified in order to determine and quantity the ammonia production in plaque and/or bacteria.

N=C(N)NCCC[C@H](N)C(=O)O [L-Arginine, L-arginine]
Ammonia (ppm) (Mean of 6 separate trials): 1.06 ppm | Ammonia (ppm) (Trial 1): 0.509 ppm | Ammonia (ppm) (Trial 2): 0.866 ppm | Ammonia (ppm) (Trial 3): 2.20 ppm | Ammonia (ppm) (Trial 4): 1.62 ppm | Ammonia (ppm) (Trial 5): 0.5 ppm | Ammonia (ppm) (Trial 6): 0.679 ppm

NC(=O)NCCC[C@H](N)C(=O)O [L-Citrulline, L-citrulline]
Ammonia (ppm) (Mean of 6 separate trials): 0.951 ppm | Ammonia (ppm) (Trial 1): 0.185 ppm | Ammonia (ppm) (Trial 2): 0.346 ppm | Ammonia (ppm) (Trial 3): 0.332 ppm | Ammonia (ppm) (Trial 4): 0.194 ppm | Ammonia (ppm) (Trial 5): 0.226 ppm | Ammonia (ppm) (Trial 6): 0.951 ppm

NCCC[C@H](N)C(=O)O [L-Ornithine, L-ornithine]
Ammonia (ppm) (Mean of 6 separate trials): 0.134 ppm | Ammonia (ppm) (Trial 1): 0.185 ppm | Ammonia (ppm) (Trial 2): 0.260 ppm | Ammonia (ppm) (Trial 3): 0.047 ppm | Ammonia (ppm) (Trial 4): 0.0 ppm | Ammonia (ppm) (Trial 5): 0.181 ppm | Ammonia (ppm) (Trial 6): 0.135 ppm
